Assay type in all cases: functional
Assay [1] has as its system Mus musculus. In words: Inhibitory effect on D-GalN/LPS (injected i.p. dose of 350 mg/kg and 10 ug/kg) induced hepatic injury in mice at 10 mg/kg, ip.
The species named for assay [2] is Rattus norvegicus. The experiment in a line: In vitro inhibitory effect on D-Galactosamine induced cytotoxicity in primary cultured rat hepatocytes at 0.3 ug/mL. The conditions noted are these: Hepatocyte.
The species named for assay [3] is Rattus norvegicus. In words: In vitro inhibitory effect on D-Galactosamine induced cytotoxicity in primary cultured rat hepatocytes at 1 ug/mL. The following applies: Hepatocyte.
Assay [4] is filed under the species Rattus norvegicus. In words: In vitro inhibitory effect on D-Galactosamine induced cytotoxicity in primary cultured rat hepatocytes at 10 ug/mL. The conditions noted are these: Hepatocyte.
The species named for assay [5] is Rattus norvegicus. The experiment in a line: In vitro inhibitory effect on D-Galactosamine induced cytotoxicity in primary cultured rat hepatocytes at 3 ug/mL. The following applies: Hepatocyte.
For assay [6], the species on record is Rattus norvegicus. In words: In vitro inhibitory effect on D-Galactosamine induced cytotoxicity in primary cultured rat hepatocytes at 30 ug/mL. The conditions noted are these: Hepatocyte.
In assay [7] the test system is Mus musculus. In words: Inhibitory effect on D-GalN/LPS (injected i.p. dose of 350 mg/kg and 10 ug/kg) induced hepatic injury in mice at 20 mg/kg, ip.

In general, inhibition refers to the relative decrease from the control value, in per cent.

For `C[C@H]1O[C@@H](O[C@H]2CC[C@@]3(C)C(CC[C@]4(C)C3[C@H](O)CC3C5=CC(C)(C)CC[C@]5(CO)[C@@H](O)C[C@]34C)[C@]2(C)CO)[C@H](O)[C@@H](O[C@@H]2O[C@H](CO)[C@@H](O)[C@H](O)[C@H]2O)[C@H]1O` (stereo not given in full), in the assay on Mus musculus [1], the s-GOT level was found to be 1209 Karmen units and the s-GPT level was determined as 1265 Karmen units. For the same compound, in the assay listed under Rattus norvegicus [2], the inhibition at 0.3 µg/mL was 15.8%. In addition, in the assay listed under Rattus norvegicus [3], the inhibition at 1 µg/mL came to 39.7%. For the same compound, the inhibition at 10 µg/mL in the assay listed under Rattus norvegicus [4] amounted to 69.5%. Also, in the assay filed under Rattus norvegicus [5], the inhibition at 3 µg/mL stood at 59.4%. The inhibition at 30 µg/mL in the assay listed under Rattus norvegicus [6] stood at 64.7%.
In the assay on Mus musculus [1], `C[C@H]1O[C@@H](O[C@H]2CC[C@@]3(C)C(CC[C@]4(C)C3[C@H](O)C=C3C5CC(C)(C)CC[C@]5(CO)[C@@H](O)C[C@]34C)[C@]2(C)CO)[C@H](O)[C@@H](O[C@@H]2O[C@H](CO)[C@@H](O)[C@H](O)[C@H]2O)[C@H]1O` (stereo not given in full) showed a s-GOT level of 1261 Karmen units and a s-GPT level of 1483 Karmen units. In addition, the inhibition at 0.3 µg/mL in the assay filed under Rattus norvegicus [2] turned out to be 6.8%. Further, in the assay filed under Rattus norvegicus [3], the inhibition at 1 µg/mL turned out to be 16.7%. Moreover, the inhibition at 10 µg/mL in the assay filed under Rattus norvegicus [4] came to 43.1%. The inhibition at 3 µg/mL in the assay filed under Rattus norvegicus [5] came out at 35.6%. For the same compound, the inhibition at 30 µg/mL in the assay listed under Rattus norvegicus [6] worked out at 46.5%.
As to `C[C@H]1O[C@@H](O[C@H]2CC[C@@]3(C)C(CC[C@]4(C)C3C(=O)C=C3C5CC(C)(C)CC[C@]5(CO)[C@@H](O)C[C@]34C)[C@]2(C)CO)[C@H](O)[C@@H](O[C@@H]2O[C@H](CO)[C@@H](O)[C@H](O)[C@H]2O)[C@H]1O` (stereo not given in full), in the assay with Mus musculus [1], the s-GOT level is reported as 7211 Karmen units and the s-GPT level is given as 7887 Karmen units. In the assay on Mus musculus [7], this compound yielded a s-GOT level of 1404 Karmen units and a s-GPT level of 1530 Karmen units. Moreover, in the assay filed under Rattus norvegicus [2], the inhibition at 0.3 µg/mL amounted to 5.5%. In the assay listed under Rattus norvegicus [3], the inhibition at 1 µg/mL was found to be 16.9%. In addition, the inhibition at 10 µg/mL in the assay listed under Rattus norvegicus [4] worked out at 72.8%. The inhibition at 3 µg/mL in the assay filed under Rattus norvegicus [5] amounted to 44.5%. In addition, the inhibition at 30 µg/mL in the assay listed under Rattus norvegicus [6] came out at 90.9%.
In the assay with Mus musculus [7], `C[C@]12CCC(=O)C=C1CCC1[C@@H]2[C@@H](O)C[C@@]2(C)[C@H]1CC[C@]2(O)C(=O)CO` (single isomer, unassigned) [HYDROCORTISONE] returned a s-GOT level of 331 Karmen units and a s-GPT level of 202 Karmen units.
On to `C[C@@H]1O[C@@H](O[C@@H]2[C@H](O)[C@@H](O)[C@H](O[C@H]3CC[C@@]4(C)C(CC[C@]5(C)C4CC=C4C6CC(C)(C)CC[C@]6(CO)CC[C@]45C)C3(C)C)O[C@@H]2CO[C@@H]2O[C@H](CO)[C@@H](O)[C@H](O)[C@H]2O)[C@H](O)[C@H](O)[C@H]1O` (stereo not given in full) [BUPLEUROSIDE XI], for which the inhibition at 0.3 µg/mL in the assay listed under Rattus norvegicus [2] was -0.4%. For the same compound, the inhibition at 1 µg/mL in the assay filed under Rattus norvegicus [3] amounted to 1.6%. The inhibition at 10 µg/mL in the assay listed under Rattus norvegicus [4] was determined as 0.3%. The inhibition at 3 µg/mL in the assay listed under Rattus norvegicus [5] is -1%. Besides, in the assay listed under Rattus norvegicus [6], the inhibition at 30 µg/mL is -0.3%.
Take `C[C@@H]1O[C@@H](O[C@H]2[C@@H](O)[C@@H](CO[C@@H]3O[C@H](CO)[C@@H](O)[C@H](O)[C@H]3O)O[C@@H](OC3CC[C@@]4(C)C(CC[C@]5(C)C4C=CC4=C6CC(C)(C)CC[C@]6(CO)[C@H](O)C[C@]45C)[C@]3(C)CO)[C@@H]2O)[C@H](O)[C@H](O)[C@H]1O` (stereo not given in full) [BUPLEUROSIDE X]: in the assay filed under Rattus norvegicus [2], the inhibition at 0.3 µg/mL was 2.9%. Also, the inhibition at 1 µg/mL in the assay filed under Rattus norvegicus [3] is 3.9%. Besides, in the assay listed under Rattus norvegicus [4], the inhibition at 10 µg/mL is 3.4%. Besides, the inhibition at 3 µg/mL in the assay filed under Rattus norvegicus [5] was 4.6%. The inhibition at 30 µg/mL in the assay filed under Rattus norvegicus [6] was determined as 2.7%.
Turning to `C[C@@H]1O[C@@H](O[C@@H]2[C@H](O)[C@@H](O)[C@H](O[C@H]3CC[C@@]4(C)C(CC[C@]5(C)C4C=C[C@]46OC[C@@]7(CCC(C)(C)CC74)[C@@H](O)C[C@]65C)C3(C)C)O[C@@H]2CO[C@@H]2O[C@H](CO)[C@@H](O)[C@H](O)[C@H]2O)[C@H](O)[C@H](O)[C@H]1O` (stereo not given in full) [SAIKOSAPONIN C], in the assay listed under Rattus norvegicus [2], the inhibition at 0.3 µg/mL is -1.5%. Further, in the assay filed under Rattus norvegicus [3], the inhibition at 1 µg/mL is -0.7%. For the same compound, the inhibition at 10 µg/mL in the assay filed under Rattus norvegicus [4] was -1%. Further, in the assay filed under Rattus norvegicus [5], the inhibition at 3 µg/mL was -1.9%. Also, the inhibition at 30 µg/mL in the assay listed under Rattus norvegicus [6] was -1%.
